{"source": "patent US20230085307A1", "about": "“PYRIDAZINONE COMPOUND AND HERBICIDE” (NISSAN CHEMICAL CORPORATION, priority 2019, published 2023)", "data": [{"tested_on": "persian speedwell", "test": "Test Example 5: herbicidal effect by foliage application, plastic box (Table 20, symbol R)", "format": "in vivo, Persian speedwell (Veronica persica)", "conditions": "foliage application, 320 g/ha, three weeks after application", "summary_of_the_method": "(§1)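 Sow seeds spot-wise in sterilized diluvial soil; cover with ~1.5 cm soil. Grow 14 days in greenhouse, 25° C. to 30° C. Spray foliage with emulsion diluted to predetermined amount. Rate effect after 3 weeks.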", "values": [{"smiles": "CCCOc1ccc(-c2sc3ccc(F)cc3c2-c2c(O)c(CC)nn(C)c2=O)cc1", "note": "[2-418]", "R: persian speedwell, herbicidal effect grade": "5 (Herbicidal rate of 90% or more (almost completely withered))"}]}, {"tested_on": "late watergrass", "test": "Test Example 1: herbicidal activity, application before weed generation under submerged conditions (Table 16, symbol A)", "format": "in vivo, late watergrass (Echinochloa oryzicola)", "conditions": "amount of applied herbicide 320 g/ha", "summary_of_the_method": "(§2)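 Submerged Wagner pots (alluvial soil, 4 cm water) sown with weed seeds and planted with 2.5-leaf rice seedlings; emulsifiable concentrate diluted in water applied to water surface on sowing day. Held in greenhouse at 25-30 °C; injury scored 0-5 by herbicidal rate after three weeks.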", "values": [{"smiles": "CCCOc1ccc(-c2sc3ccc(F)cc3c2-c2c(O)c(CC)nn(C)c2=O)cc1", "note": "[2-418]", "Herbicidal effect, A: late watergrass": "4 (Herbicidal rate of 70% or more and less than 90%)"}]}, {"tested_on": "Japanese bulrush", "test": "Test Example 1: herbicidal activity, application before weed generation under submerged conditions (Table 16, symbol B)", "format": "in vivo, Japanese bulrush (Schoenoplectus juncoides)", "conditions": "amount of applied herbicide 320 g/ha", "summary_of_the_method": "as §2", "values": [{"smiles": "CCCOc1ccc(-c2sc3ccc(F)cc3c2-c2c(O)c(CC)nn(C)c2=O)cc1", "note": "[2-418]", "Herbicidal effect, B: Japanese bulrush": "4 (Herbicidal rate of 70% or more and less than 90%)"}]}, {"tested_on": "oval-leafed pondweed", "test": "Test Example 2: herbicidal activity, application during weed generation under submerged conditions (Table 17, symbol C)", "format": "in vivo, oval-leafed pondweed (Monochoria vaginalis)", "conditions": "AAH 320 g/ha; application during weed generation, submerged conditions", "summary_of_the_method": "(§3)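 Steps: fill Wagner pots with alluvial soil; add water to give 4 cm depth; sow the species mixed; grow under glass at 25–30° C.; at 1–2 leaves apply water-diluted emulsion formulation to the water surface at a fixed herbicide amount; score after 3 weeks.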", "values": [{"smiles": "CCCOc1ccc(-c2sc3ccc(F)cc3c2-c2c(O)c(CC)nn(C)c2=O)cc1", "note": "[2-418]", "herbicidal effect rating, C: oval-leafed pondweed": "0 (Herbicidal rate of 5% or less (almost no effect))"}]}, {"tested_on": "lambsquarters", "test": "Test Example 5: herbicidal effect by foliage application, plastic box (Table 20, symbol O)", "format": "in vivo, lambsquarters (Chenopodium album)", "conditions": "foliage application, 320 g/ha, three weeks after application", "summary_of_the_method": "as §1", "values": [{"smiles": "CCCOc1ccc(-c2sc3ccc(F)cc3c2-c2c(O)c(CC)nn(C)c2=O)cc1", "note": "[2-418]", "O: lambsquarters, herbicidal effect grade": "5 (Herbicidal rate of 90% or more (almost completely withered))"}]}, {"tested_on": "wild oat", "test": "Test Example 5: herbicidal effect by foliage application, plastic box (Table 20, symbol I)", "format": "in vivo, wild oat (Avena fatua)", "conditions": "foliage application, 320 g/ha, three weeks after application", "summary_of_the_method": "as §1", "values": [{"smiles": "CCCOc1ccc(-c2sc3ccc(F)cc3c2-c2c(O)c(CC)nn(C)c2=O)cc1", "note": "[2-418]", "I: wild oat, herbicidal effect grade": "0 (Herbicidal rate of 5% or less (almost no effect))"}]}, {"tested_on": "barnyard grass", "test": "Test Example 3: herbicidal effect by foliage application, Wagner pot (Table 18, symbol H)", "format": "in vivo, barnyard grass (Echinochloa crus-galli)", "conditions": "amount of applied herbicide 320 g/ha", "summary_of_the_method": "(§4)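 Plants were sown in alluvial soil held under 0.1–0.5 cm standing water and grown 14 days in a greenhouse at 25–30 °C. An emulsifiable formulation, water-diluted to the set dose, was then sprayed onto the foliage, and effects were scored three weeks later using previously defined criteria.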", "values": [{"smiles": "CCCOc1ccc(-c2sc3ccc(F)cc3c2-c2c(O)c(CC)nn(C)c2=O)cc1", "note": "[2-418]", "herbicidal effect on H: barnyard grass": "5 (Herbicidal rate of 90% or more (almost completely withered))"}]}, {"tested_on": "Italian ryegrass", "test": "Test Example 5: herbicidal effect by foliage application, plastic box (Table 20, symbol K)", "format": "in vivo, Italian ryegrass (Lolium multiflorum)", "conditions": "foliage application, 320 g/ha, three weeks after application", "summary_of_the_method": "as §1", "values": [{"smiles": "CCCOc1ccc(-c2sc3ccc(F)cc3c2-c2c(O)c(CC)nn(C)c2=O)cc1", "note": "[2-418]", "K: Italian ryegrass, herbicidal effect grade": "4 (Herbicidal rate of 70% or more and less than 90%)"}]}, {"tested_on": "Chinese sprangletop", "test": "Test Example 3: herbicidal effect by foliage application, Wagner pot (Table 18, symbol D)", "format": "in vivo, chinese sprangletop (Leptochloa chinensis)", "conditions": "amount of applied herbicide 320 g/ha", "summary_of_the_method": "as §4", "values": [{"smiles": "CCCOc1ccc(-c2sc3ccc(F)cc3c2-c2c(O)c(CC)nn(C)c2=O)cc1", "note": "[2-418]", "herbicidal effect on D: Chinese sprangletop": "3 (Herbicidal rate of 40% or more and less than 70%)"}]}, {"tested_on": "barnyard grass", "test": "Test Example 5: herbicidal effect by foliage application, plastic box (Table 20, symbol H)", "format": "in vivo, barnyard grass (Echinochloa crus-galli)", "conditions": "foliage application, 320 g/ha, three weeks after application", "summary_of_the_method": "as §1", "values": [{"smiles": "CCCOc1ccc(-c2sc3ccc(F)cc3c2-c2c(O)c(CC)nn(C)c2=O)cc1", "note": "[2-418]", "H: barnyard grass, herbicidal effect grade": "4 (Herbicidal rate of 70% or more and less than 90%)"}]}, {"tested_on": "Japanese bulrush", "test": "Test Example 2: herbicidal activity, application during weed generation under submerged conditions (Table 17, symbol B)", "format": "in vivo, Japanese bulrush (Schoenoplectus juncoides)", "conditions": "AAH 320 g/ha; application during weed generation, submerged conditions", "summary_of_the_method": "as §3", "values": [{"smiles": "CCCOc1ccc(-c2sc3ccc(F)cc3c2-c2c(O)c(CC)nn(C)c2=O)cc1", "note": "[2-418]", "herbicidal effect rating, B: Japanese bulrush": "3 (Herbicidal rate of 40% or more and less than 70%)"}]}, {"tested_on": "rice flat sedge", "test": "Test Example 3: herbicidal effect by foliage application, Wagner pot (Table 18, symbol E)", "format": "in vivo, rice flat sedge (Cyperus iria)", "conditions": "amount of applied herbicide 320 g/ha", "summary_of_the_method": "as §4", "values": [{"smiles": "CCCOc1ccc(-c2sc3ccc(F)cc3c2-c2c(O)c(CC)nn(C)c2=O)cc1", "note": "[2-418]", "herbicidal effect on E: rice flat sedge": "5 (Herbicidal rate of 90% or more (almost completely withered))"}]}, {"tested_on": "oval-leafed pondweed", "test": "Test Example 1: herbicidal activity, application before weed generation under submerged conditions (Table 16, symbol C)", "format": "in vivo, oval-leafed pondweed (Monochoria vaginalis)", "conditions": "amount of applied herbicide 320 g/ha", "summary_of_the_method": "as §2", "values": [{"smiles": "CCCOc1ccc(-c2sc3ccc(F)cc3c2-c2c(O)c(CC)nn(C)c2=O)cc1", "note": "[2-418]", "Herbicidal effect, C: oval-leafed pondweed": "2 (Herbicidal rate of 20% or more and less than 40%)"}]}, {"tested_on": "southern crabgrass", "test": "Test Example 5: herbicidal effect by foliage application, plastic box (Table 20, symbol F)", "format": "in vivo, southern crabgrass (Digitaria ciliaris)", "conditions": "foliage application, 320 g/ha, three weeks after application", "summary_of_the_method": "as §1", "values": [{"smiles": "CCCOc1ccc(-c2sc3ccc(F)cc3c2-c2c(O)c(CC)nn(C)c2=O)cc1", "note": "[2-418]", "F: southern crabgrass, herbicidal effect grade": "2 (Herbicidal rate of 20% or more and less than 40%)"}]}, {"tested_on": "velvetleaf", "test": "Test Example 5: herbicidal effect by foliage application, plastic box (Table 20, symbol M)", "format": "in vivo, velvetleaf (Abutilon theophrasti)", "conditions": "foliage application, 320 g/ha, three weeks after application", "summary_of_the_method": "as §1", "values": [{"smiles": "CCCOc1ccc(-c2sc3ccc(F)cc3c2-c2c(O)c(CC)nn(C)c2=O)cc1", "note": "[2-418]", "M: velvetleaf, herbicidal effect grade": "5 (Herbicidal rate of 90% or more (almost completely withered))"}]}, {"tested_on": "blackgrass", "test": "Test Example 5: herbicidal effect by foliage application, plastic box (Table 20, symbol J)", "format": "in vivo, blackgrass (Alopecurus myosuroides)", "conditions": "foliage application, 320 g/ha, three weeks after application", "summary_of_the_method": "as §1", "values": [{"smiles": "CCCOc1ccc(-c2sc3ccc(F)cc3c2-c2c(O)c(CC)nn(C)c2=O)cc1", "note": "[2-418]", "J: blackgrass, herbicidal effect grade": "4 (Herbicidal rate of 70% or more and less than 90%)"}]}, {"tested_on": "green foxtail", "test": "Test Example 5: herbicidal effect by foliage application, plastic box (Table 20, symbol G)", "format": "in vivo, green foxtail (Setaria viridis)", "conditions": "foliage application, 320 g/ha, three weeks after application", "summary_of_the_method": "as §1", "values": [{"smiles": "CCCOc1ccc(-c2sc3ccc(F)cc3c2-c2c(O)c(CC)nn(C)c2=O)cc1", "note": "[2-418]", "G: green foxtail, herbicidal effect grade": "3 (Herbicidal rate of 40% or more and less than 70%)"}]}, {"tested_on": "redroot pigweed", "test": "Test Example 5: herbicidal effect by foliage application, plastic box (Table 20, symbol N)", "format": "in vivo, redroot pigweed (Amaranthus retroflexus)", "conditions": "foliage application, 320 g/ha, three weeks after application", "summary_of_the_method": "as §1", "values": [{"smiles": "CCCOc1ccc(-c2sc3ccc(F)cc3c2-c2c(O)c(CC)nn(C)c2=O)cc1", "note": "[2-418]", "N: redroot pigweed, herbicidal effect grade": "5 (Herbicidal rate of 90% or more (almost completely withered))"}]}, {"tested_on": "chickweed", "test": "Test Example 5: herbicidal effect by foliage application, plastic box (Table 20, symbol P)", "format": "in vivo, common chickweed (Stellaria media)", "conditions": "foliage application, 320 g/ha, three weeks after application", "summary_of_the_method": "as §1", "values": [{"smiles": "CCCOc1ccc(-c2sc3ccc(F)cc3c2-c2c(O)c(CC)nn(C)c2=O)cc1", "note": "[2-418]", "P: chickweed, herbicidal effect grade": "5 (Herbicidal rate of 90% or more (almost completely withered))"}]}, {"tested_on": "late watergrass", "test": "Test Example 2: herbicidal activity, application during weed generation under submerged conditions (Table 17, symbol A)", "format": "in vivo, late watergrass (Echinochloa oryzicola)", "conditions": "AAH 320 g/ha; application during weed generation, submerged conditions", "summary_of_the_method": "as §3", "values": [{"smiles": "CCCOc1ccc(-c2sc3ccc(F)cc3c2-c2c(O)c(CC)nn(C)c2=O)cc1", "note": "[2-418]", "herbicidal effect rating, A: late watergrass": "2 (Herbicidal rate of 20% or more and less than 40%)"}]}, {"tested_on": "windgrass", "test": "Test Example 5: herbicidal effect by foliage application, plastic box (Table 20, symbol L)", "format": "in vivo, windgrass (Apera spica-venti)", "conditions": "foliage application, 320 g/ha, three weeks after application", "summary_of_the_method": "as §1", "values": [{"smiles": "CCCOc1ccc(-c2sc3ccc(F)cc3c2-c2c(O)c(CC)nn(C)c2=O)cc1", "note": "[2-418]", "L: windgrass, herbicidal effect grade": "4 (Herbicidal rate of 70% or more and less than 90%)"}]}]}
